{"source": "patent EP4667458A1", "about": "(Kanaph Therapeutics Inc., priority 2023, dated 2024)"}
{"target": "T1, KRAS^G12C::SOS1 (Homo sapiens, UniProt Q07889)", "T1 sequence (Q07889 1-1333)": "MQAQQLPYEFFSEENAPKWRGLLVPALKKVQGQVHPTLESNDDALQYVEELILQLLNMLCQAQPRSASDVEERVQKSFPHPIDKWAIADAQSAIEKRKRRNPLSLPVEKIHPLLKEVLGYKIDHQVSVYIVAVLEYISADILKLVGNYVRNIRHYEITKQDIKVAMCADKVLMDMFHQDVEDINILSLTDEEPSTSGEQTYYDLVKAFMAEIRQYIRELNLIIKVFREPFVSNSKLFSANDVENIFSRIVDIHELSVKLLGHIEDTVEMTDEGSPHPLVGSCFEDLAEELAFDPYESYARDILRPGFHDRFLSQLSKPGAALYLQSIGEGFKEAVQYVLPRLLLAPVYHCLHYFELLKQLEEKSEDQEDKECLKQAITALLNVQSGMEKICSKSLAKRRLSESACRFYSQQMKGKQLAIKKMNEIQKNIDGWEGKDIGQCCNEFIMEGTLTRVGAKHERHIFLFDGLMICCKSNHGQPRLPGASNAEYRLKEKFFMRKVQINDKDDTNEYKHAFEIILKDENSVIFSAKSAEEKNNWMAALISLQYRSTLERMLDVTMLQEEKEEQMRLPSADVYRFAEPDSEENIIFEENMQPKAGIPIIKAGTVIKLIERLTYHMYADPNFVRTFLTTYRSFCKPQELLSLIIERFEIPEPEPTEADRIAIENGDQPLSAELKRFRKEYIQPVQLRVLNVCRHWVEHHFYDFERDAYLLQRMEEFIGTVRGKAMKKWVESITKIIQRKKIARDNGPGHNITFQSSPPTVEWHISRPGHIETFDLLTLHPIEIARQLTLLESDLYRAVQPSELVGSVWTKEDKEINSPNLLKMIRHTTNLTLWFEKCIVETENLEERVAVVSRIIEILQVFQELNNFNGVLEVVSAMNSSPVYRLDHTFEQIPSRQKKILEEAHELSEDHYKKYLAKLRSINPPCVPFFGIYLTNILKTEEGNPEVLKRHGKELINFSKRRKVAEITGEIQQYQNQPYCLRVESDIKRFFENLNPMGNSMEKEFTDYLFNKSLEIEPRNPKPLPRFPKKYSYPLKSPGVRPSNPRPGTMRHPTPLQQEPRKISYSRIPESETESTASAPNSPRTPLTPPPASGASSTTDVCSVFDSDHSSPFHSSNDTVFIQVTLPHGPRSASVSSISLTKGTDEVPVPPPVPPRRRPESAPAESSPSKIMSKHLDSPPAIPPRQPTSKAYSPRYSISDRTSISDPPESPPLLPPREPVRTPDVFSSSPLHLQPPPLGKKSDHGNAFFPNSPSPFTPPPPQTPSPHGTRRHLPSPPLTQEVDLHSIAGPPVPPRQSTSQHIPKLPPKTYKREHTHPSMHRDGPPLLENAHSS", "assay": "KRAS G12C::SOS1 protein-protein interaction (PPI) inhibition assay (HTRF binding kit)", "units": {"IC50": "nM"}}
{"smiles": "C[C@@H](NC(=O)c1ccc(=O)n(-c2ncccc2F)n1)c1cc(N)cc(C(F)(F)F)c1", "note": "[Example 388]", "IC50": "> 10000"}
{"smiles": "C[C@H](NC(=O)c1ccc(=O)n(-c2ccccc2F)n1)c1cc(N)cc(C(F)(F)F)n1", "note": "[Example 394, N-[(1S)-1-[4-amino-6-(trifluoromethyl)-2-pyridyl]ethyl]-1-(2-fluorophenyl)-6-oxo-pyridazine-3-carboxamide]", "IC50": "> 10000"}
{"smiles": "C[C@@H](NC(=O)c1ccc(=O)n(-c2ccccc2F)n1)c1cc(N)cc(C(F)(F)F)n1", "note": "[Example 395, N-[(1R)-1-[4-amino-6-(trifluoromethyl)-2-pyridyl]ethyl]-1-(2-fluorophenyl)-6-oxo-pyridazine-3-carboxamide]", "IC50": "1000 to 10000"}
{"smiles": "CNCc1ccc(F)cc1-c1ncc([C@@H](C)NC(=O)c2ccc(=O)n(-c3ccccc3F)n2)s1", "note": "[Example 396, N-[(1R)-1-[2-[5-fluoro-2-(methylaminomethyl)phenyl]thiazol-5-yl]ethyl]-1-(2-fluorophenyl)-6-oxo-pyridazine-3-carboxamide]", "IC50": "< 1000"}
{"smiles": "COCC(F)(F)c1cccc([C@@H](C)NC(=O)c2ccc(=O)n(-c3cccc(-c4cnnn4C)c3)n2)c1F", "note": "[Example 397]", "IC50": "< 1000"}
{"smiles": "CNCc1ccccc1-c1ccc([C@@H](C)NC(=O)c2ccc(=O)n(-c3ccc(F)cc3F)n2)s1", "note": "[Example 398, (R)-1-(2,4-difluorophenyl)-N-(1-(5-(2-((methylamino)methyl)phenyl)thiophenyl-2-yl)ethyl)-6-oxo-1,6-dihydropyridazine-3-carboxamide]", "IC50": "< 1000"}
{"smiles": "CNCc1cc(F)c(Cl)cc1-c1ccc([C@@H](C)NC(=O)c2ccc(=O)n(-c3cccnc3F)n2)s1", "note": "[Example 399, N-[(1R)-1-(5-{5-chloro-4-fluoro-2-[(methylamino)methyl]phenyl}thiophen-2-yl)ethyl]-1-(2-fluoropyridin-3-yl)-6-oxo-1,6-dihydropyridazine-3-carboxamide]", "IC50": "< 1000"}
{"smiles": "CNCc1cc(Cl)c(F)cc1-c1ccc([C@@H](C)NC(=O)c2ccc(=O)n(-c3cccnc3F)n2)s1", "note": "[Example 400, N-[(1R)-1-(5-{4-chloro-5-fluoro-2-[(methylamino)methyl]phenyl}thiophen-2-yl)ethyl]-1-(2-fluoropyridin-3-yl)-6-oxo-1,6-dihydropyridazine-3-carboxamide]", "IC50": "< 1000"}
{"smiles": "CNCc1cc(F)c(F)cc1-c1ccc([C@@H](C)NC(=O)c2ccc(=O)n(-c3cccnc3F)n2)s1", "note": "[Example 401, N-[(1R)-1-(5-{4,5-difluoro-2-[(methylamino)methyl]phenyl}thiophen-2-yl)ethyl]-1-(2-fluoropyridin-3-yl)-6-oxo-1,6-dihydropyridazine-3-carboxamide]", "IC50": "< 1000"}
{"smiles": "CNCc1ccc(C)cc1-c1ccc([C@@H](C)NC(=O)c2ccc(=O)n(-c3cccnc3F)n2)s1", "note": "[Example 402, 1-(2-fluoropyridin-3-yl)-N-[(1R)-1-(5-{5-methyl-2-[(methylamino)methyl]phenyl}thiophen-2-yl)ethyl]-6-oxo-1,6-dihydropyridazine-3-carboxamide]", "IC50": "< 1000"}
{"smiles": "C[C@@H](NC(=O)c1ccc(=O)n(-c2cccnc2F)n1)c1ccc(-c2cc(F)ccc2CN(C)C)s1", "note": "[Example 403, N-[(1R)-1-(5-{2-[(dimethylamino)methyl]-5-fluorophenyl}thiophen-2-yl)ethyl]-1-(2-fluoropyridin-3-yl)-6-oxo-1,6-dihydropyridazine-3-carboxamide]", "IC50": "< 1000"}
{"smiles": "C[C@@H](NC(=O)c1ccc(=O)n(-c2cccnc2F)n1)c1ccc(-c2cc(F)ccc2CN)s1", "note": "[Example 404]", "IC50": "< 1000"}
{"smiles": "CCn1cc(-n2nc(C(=O)N[C@H](C)c3ccc(-c4cc(Cl)ccc4CNC)s3)ccc2=O)cn1", "note": "[Example 405]", "IC50": "< 1000"}
{"smiles": "CNCc1ccc(Cl)cc1-c1ccc([C@@H](C)NC(=O)c2ccc(=O)n(-c3cnn(CCOC)c3)n2)s1", "note": "[Example 406]", "IC50": "< 1000"}
{"smiles": "CNCc1ccc(F)cc1-c1ccc([C@@H](C)NC(=O)c2ccc(=O)n(-c3cccnc3OC)n2)s1", "note": "[Example 407]", "IC50": "< 1000"}
